Patent publication US20260374754A1, “N-((ISOQUINOLIN-6-YL)METHYL)-1H-PYRAZOLE-4-CARBOXAMIDE DERIVATIVES AS PLASMA KALLIKREIN INHIBITORS FOR THE TREATMENT OF HEREDITARY ANGIODEMA” (Takeda Pharmaceutical Company Limited, priority 2022, published 2026)
Where a name gives a salt, the structure may show the parent alone.

target: human activated kallikrein enzyme (Homo sapiens, UniProt P03952); test: Inhibition of human activated plasma kallikrein, fluorogenic PFR-AMC substrate, 500 pM enzyme format; format: biochemical; details: 500 pM activated kallikrein; 300 μM PFR-AMC; 30 min preincubation; 10 min room temperature; pH 7.5; read-out: Primary Dose Response Assay: Average EC50
Sequence (P03952 391-638 limits assumed): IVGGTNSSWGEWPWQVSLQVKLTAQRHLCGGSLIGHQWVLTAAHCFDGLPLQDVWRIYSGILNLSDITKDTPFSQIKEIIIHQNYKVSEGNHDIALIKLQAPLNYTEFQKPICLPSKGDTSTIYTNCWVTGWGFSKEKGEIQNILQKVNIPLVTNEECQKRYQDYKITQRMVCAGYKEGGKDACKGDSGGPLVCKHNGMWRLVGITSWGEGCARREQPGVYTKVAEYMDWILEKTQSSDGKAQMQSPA
Sequence (P03952 20-390 partner limits assumed): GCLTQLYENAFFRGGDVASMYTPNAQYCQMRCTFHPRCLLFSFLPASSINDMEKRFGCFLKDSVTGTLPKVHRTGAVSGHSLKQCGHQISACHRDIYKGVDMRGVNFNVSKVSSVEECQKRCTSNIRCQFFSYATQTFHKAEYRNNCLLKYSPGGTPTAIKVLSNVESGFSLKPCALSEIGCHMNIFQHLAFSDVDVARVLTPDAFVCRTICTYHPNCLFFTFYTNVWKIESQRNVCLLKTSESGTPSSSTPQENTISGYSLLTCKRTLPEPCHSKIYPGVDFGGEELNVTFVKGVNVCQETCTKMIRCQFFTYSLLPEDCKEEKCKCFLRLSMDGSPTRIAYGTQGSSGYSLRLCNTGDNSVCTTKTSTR
How it was run: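 Using fluorogenic PFR-AMC at 300 μM, cleavage by 500 pM human activated kallikrein ran 10 min at room temperature, read at 460 nm emission (380 nm excitation). Enzyme and compounds were first preincubated 30 min in 20 mM Tris pH 7.5, 150 mM NaCl, 1 mM EDTA, 0.1% PEG-400, 0.1% Triton X-100.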

Compound	EC50 [nM]
Cc1cc2c(N)nccc2c(C)c1CNc1cc(OCc2nc3cc(C4CC4)ccc3s2)ncn1 [Example 282, 6-(((6-((5-cyclopropylbenzo[d]thiazol-2-yl)methoxy)pyrimidin-4-yl)amino)methyl)-5,7-dimethylisoquinolin-1-amine]	100 to 1000
Cc1cc2c(N)nccc2c(C)c1CNc1cc(OCc2ccccc2)cnn1 [Example 443, 6-(((5-(benzyloxy)pyridazin-3-yl)amino)methyl)-5,7-dimethylisoquinolin-1-amine]	100 to 1000
Cc1cc2c(N)nccc2c(C)c1CN1C(=O)c2ncc(OCc3cn4cc(C5CC5)ccc4n3)cc21 [Example 494, 7-((1-amino-5,7-dimethylisoquinolin-6-yl)methyl)-4-((6-cyclopropylimidazo[1,2-a]pyridin-2-yl)methoxy)-2,7-diazabicyclo[4.2.0]octa-1,3,5-trien-8-one]	> 1000
Cc1cc2c(N)nccc2c(C)c1CNc1nccc2c1cnn2Cc1cn2cc(C3CC3)cnc2n1 [Example 393, 6-(((1-((6-cyclopropylimidazo[1,2-a]pyrimidin-2-yl)methyl)-1H-pyrazolo[4,3-c]pyridin-4-yl)amino)methyl)-5,7-dimethylisoquinolin-1-amine]	100 to 1000
Cc1cc2c(N)nccc2c(C)c1CNc1cc2c(ccn2Cc2ccc3ncc(Cl)cc3c2)cn1 [Example 518, 6-(((1-((3-chloroquinolin-6-yl)methyl)-1H-pyrrolo[3,2-c]pyridin-6-yl)amino)methyl)-5,7-dimethylisoquinolin-1-amine]	> 1000
Cc1cc2c(N)nccc2c(C)c1CNC(=O)c1cnn(Cc2ccccc2C#N)c1 [Example 32, N-((1-amino-5,7-dimethylisoquinolin-6-yl)methyl)-1-(2-cyanobenzyl)-1H-pyrazole-4-carboxamide]	100 to 1000
Cc1cc2c(N)nccc2c(C)c1CNC(=O)c1cnn(Cc2cnccn2)c1 [Example 86, N-((1-amino-5,7-dimethylisoquinolin-6-yl)methyl)-1-(pyrazin-2-ylmethyl)-1H-pyrazole-4-carboxamide]	100 to 1000
Cc1cc2c(N)nccc2c(C)c1CNc1ccc2nnc(Cc3ccc4ncc(Cl)cc4c3)n2c1 [Example 519, 6-(((3-((3-chloroquinolin-6-yl)methyl)-[1,2,4]triazolo[4,3-a]pyridin-6-yl)amino)methyl)-5,7-dimethylisoquinolin-1-amine]	100 to 1000
Cc1cccc(Cn2cc(C(=O)NCc3c(C)cc4c(N)nccc4c3C)cn2)c1 [Example 41, N-((1-amino-5,7-dimethylisoquinolin-6-yl)methyl)-1-(3-methylbenzyl)-1H-pyrazole-4-carboxamide]	10 to 100
Cc1cc2c(N)nccc2c(C)c1CNC(=O)c1cnn(Cc2cccnc2)c1 [Example 88, N-((1-amino-5,7-dimethylisoquinolin-6-yl)methyl)-1-(pyridin-3-ylmethyl)-1H-pyrazole-4-carboxamide]	10 to 100
Cc1cc2c(N)nccc2c(C)c1CNC(=O)c1cnn(Cc2cccc(C(F)(F)F)c2)c1 [Example 97, N-((1-amino-5,7-dimethylisoquinolin-6-yl)methyl)-1-(3-(trifluoromethyl)benzyl)-1H-pyrazole-4-carboxamide]	10 to 100
Cc1cc2c(N)nccc2c(C)c1CNC(=O)c1cnn(Cc2cc(C(F)(F)F)cc(C(F)(F)F)c2)c1 [Example 95, N-((1-amino-5,7-dimethylisoquinolin-6-yl)methyl)-1-(3,5-bis(trifluoromethyl)benzyl)-1H-pyrazole-4-carboxamide]	10 to 100
Cc1cc2c(N)nccc2c(C)c1CNC(=O)c1cnn(Cc2ccc(C(F)(F)C(=O)N(C)C)cc2)c1 [Example 23, N-((1-amino-5,7-dimethylisoquinolin-6-yl)methyl)-1-(4-(2-(dimethylamino)-1,1-difluoro-2-oxoethyl)benzyl)-1H-pyrazole-4-carboxamide]	10 to 100
Cc1cc2c(N)nccc2c(C)c1CNc1cc(NCc2ccc(OC3(C(=O)N(C)C)CC3)cc2)ncn1 [Example 357, 1-(4-( ((6-(((1-amino-5,7-dimethylisoquinolin-6-yl)methyl)amino)pyrimidin-4-yl)amino)methyl)phenoxy)-N,N-dimethylcyclopropane-1-carboxamide, formic acid salt]	10 to 100

Results, then the compound that gave them:

EC50 [nM]	Compound
1 to 10	Cc1cnc2cc(CNc3cc(NCc4c(C)cc5c(N)nccc5c4C)ncn3)ccc2c1 [Example 311, N^4-((1-amino-5,7-dimethylisoquinolin-6-yl)methyl)-N^6-((3-methylquinolin-7-yl)methyl)pyrimidine-4,6-diamine]
< 1	Cc1cc2c(N)nccc2c(C)c1CNC(=O)c1cnn(Cc2ccc(Cc3cccn(C)c3=O)cc2)c1 [Example 30, N-((1-amino-5,7-dimethylisoquinolin-6-yl)methyl)-1-(4-((1-methyl-2-oxo-1,2-dihydropyridin-3-yl)methyl)benzyl)-1H-pyrazole-4-carboxamide]
< 1	Cc1cc2c(N)nccc2c(C)c1CNC(=O)c1cnn(Cc2cn3c(Cl)c(C4CC4)ccc3n2)c1 [Example 148, N-((1-amino-5,7-dimethylisoquinolin-6-yl)methyl)-1-((5-chloro-6-cyclopropylimidazo[1,2-a]pyridin-2-yl)methyl)-1H-pyrazole-4-carboxamide]
< 1	Cc1cc2c(N)nccc2c(C)c1CNc1cc(OCc2ccc(CN3CCOCC3=O)cc2)cnn1 [Example 434, 4-(4-(((6-(((1-amino-5,7-dimethylisoquinolin-6-yl)methyl)amino)pyridazin-4-yl)oxy)methyl)benzyl)morpholin-3-one]
1 to 10	Cc1cc2c(N)nccc2c(C)c1CNC(=O)c1cnn(Cc2ccc(C3CCN(C)C3=O)cc2)c1 (centres unmarked) [Example I-475, N-((1-amino-5,7-dimethylisoquinolin-6-yl)methyl)-1-(4-(1-methyl-2-oxopyrrolidin-3-yl)benzyl)-1H-pyrazole-4-carboxamide]
1 to 10	Cc1cc2c(N)nccc2c(C)c1CNC(=O)c1cnn(Cc2ccc3cc(Br)ccc3n2)c1 [Example 69, N-((1-amino-5,7-dimethylisoquinolin-6-yl)methyl)-1-((6-bromoquinolin-2-yl)methyl)-1H-pyrazole-4-carboxamide]
< 1	COc1ccc2cc(Cn3cc(C(=O)NCc4c(C)cc5c(N)nccc5c4C)cn3)c(Cl)nc2c1 [Example 108, N-((1-amino-5,7-dimethylisoquinolin-6-yl)methyl)-1-((2-chloro-7-methoxyquinolin-3-yl)methyl)-1H-pyrazole-4-carboxamide]
< 1	Cc1cnc2ccc(Cn3cc(C(=O)NCc4c(C)cc5c(N)nccc5c4C)cn3)cc2n1 [Example 24, N-((1-amino-5,7-dimethylisoquinolin-6-yl)methyl)-1-((3-methylquinoxalin-6-yl)methyl)-1H-pyrazole-4-carboxamide]
< 1	Cc1cc2c(N)nccc2c(C)c1CNC(=O)c1cnn(Cc2ccc(CC(=O)N3C[C@@H]4[C@H](C)[C@@H]4C3)cc2)c1 [Example 205, N-((1-amino-5,7-dimethylisoquinolin-6-yl)methyl)-1-(4-(2-((1R,5S,6r)-6-methyl-3-azabicyclo[3.1.0]hexan-3-y1)-2-oxoethyl)benzyl)-1H-pyrazole-4-carboxamide]
< 1	Cc1cc(Cn2cc(C(=O)NCc3c(C)cc4c(N)nccc4c3C)cn2)ccc1CC(=O)N(C)C [Example 26, N-((1-amino-5,7-dimethylisoquinolin-6-yl)methyl)-1-(4-(2-(dimethylamino)-2-oxoethyl)-3-methylbenzyl)-1H-pyrazole-4-carboxamide]
< 1	Cc1cc2c(N)nccc2c(C)c1CNc1cc(NCc2ccc3c(-n4ccccc4=O)cccc3c2)ncn1 [Example 245, 1-(6-(((6-(((1-amino-5,7-dimethylisoquinolin-6-yl)methyl)amino)pyrimidin-4-yl)amino)methyl)naphthalen-1-yl)pyridin-2(1H)-one]
1 to 10	Cc1cc2c(N)nccc2c(C)c1CNc1cc(OCc2ccc(Cn3cccn3)cc2)c(C(F)(F)F)nn1 [Example 450, 6-(((5-((4-((1H-pyrazol-1-yl)methyl)benzyl)oxy)-6-(trifluoromethyl)pyridazin-3-yl)amino)methyl)-5,7-dimethylisoquinolin-1-amine]
< 1	Cc1ccc2nc(C(C)n3cc(C(=O)NCc4c(C)cc5c(N)nccc5c4C)cn3)cn2c1 (single isomer, unassigned) [Example 12, (S*)-N-((1-amino-5,7-dimethylisoquinolin-6-yl)methyl)-1-(1-(6-methylimidazo[1,2-a]pyridin-2-yl)ethyl)-1H-pyrazole-4-carboxamide]
1 to 10	Cc1cc2c(N)nccc2c(C)c1CNc1cc(OCc2ccc(Cc3ccn(C)n3)cc2)ncn1 [Example 297, 5,7-dimethyl-6-(((6-((4-((1-methyl-1H-pyrazol-3-yl)methyl)benzyl)oxy)pyrimidin-4-yl)amino)methyl)isoquinolin-1-amine, formic acid salt]
1 to 10	Cc1cc2c(N)nccc2c(C)c1CNc1cc(NCc2ccc(Cc3cc[nH]n3)cc2)ncn1 [Example 358, N^4-(4-((1H-pyrazol-3-yl)methyl)benzyl)-N^6-((1-amino-5,7-dimethylisoquinolin-6-yl)methyl)pyrimidine-4,6-diamine]
< 1	Cc1cc2c(N)nccc2c(C)c1CNc1cc(NCc2ccc(Cc3ccccn3)cc2)ncn1 [Example 363, N^4-((1-amino-5,7-dimethylisoquinolin-6-yl)methyl)-N^6-(4-(pyridin-2-ylmethyl)benzyl)pyrimidine-4,6-diamine]
< 1	Cc1cc(CNc2cc(NCc3c(C)cc4c(N)nccc4c3C)ncn2)cc(C)c1CC(=O)N(C)C [Compound 360]
1 to 10	Cc1cc2c(N)nccc2c(C)c1CNC(=O)c1cnn(Cc2cc3cc(C(F)(F)F)ccc3s2)c1 [Example 66, N-((1-amino-5,7-dimethylisoquinolin-6-yl)methyl)-1-((5-(trifluoromethyl)benzo[b]thiophen-2-yl)methyl)-1H-pyrazole-4-carboxamide]
